{
  "source": "patent US20020081339A1",
  "about": "“Treatment of inoperable tumors by stereotactic injection of microspheres” (priority 2000, published 2002)",
  "origin": "cited, not measured here",
  "settings": "hydrophilic molecule",
  "data": [
    {"smiles": "O=c1[nH]cc(F)c(=O)[nH]1", "note": "[5-FU, 5-fluorouracil]", "values": [
      {"measurement": "crossing of the blood-brain barrier", "value": "crosses the blood-brain barrier very weakly"}
    ]}
  ]
}
